Experimental data from PubChem BioAssay (NCI).
“And” between values parts separate entries of the source, which are not always exact repeats. Identical values can stand only once.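 48-hour exposure; five concentrations; linearly interpolated endpoints. GI50 marks 50% less growth. TGI: total growth inhibition.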

Legend:
Assay in all cases: NCI anticancer screen, dose series, 48 h
MALME-3M melanoma = system: MALME-3M melanoma
KM12 colon = system: KM12 colon
CCRF-CEM leukemia = system: CCRF-CEM leukemia
NCI/ADR-RES ovarian = system: NCI/ADR-RES ovarian
HCT-15 colon = system: HCT-15 colon
TK-10 renal = system: TK-10 renal
DU-145 prostate = system: DU-145 prostate
M14 melanoma = system: M14 melanoma
OVCAR-8 ovarian = system: OVCAR-8 ovarian
OVCAR-3 ovarian = system: OVCAR-3 ovarian

Row | SMILES | TGI (MALME-3M melanoma) | TGI (KM12 colon) | TGI (CCRF-CEM leukemia) [µM] | TGI (NCI/ADR-RES ovarian) [µM] | TGI (HCT-15 colon) [µM] | TGI (TK-10 renal) | TGI (DU-145 prostate) [µM] | TGI (M14 melanoma) | TGI (OVCAR-8 ovarian) | TGI (OVCAR-3 ovarian) | GI50 (MALME-3M melanoma) [µM] | GI50 (KM12 colon) [µM] | GI50 (HCT-15 colon) [µM] | GI50 (TK-10 renal) [µM] | GI50 (DU-145 prostate) [µM] | GI50 (M14 melanoma) [µM] | GI50 (OVCAR-8 ovarian) | GI50 (OVCAR-3 ovarian) | GI50 (NCI/ADR-RES ovarian) [µM] | GI50 (CCRF-CEM leukemia) [µM]
1 | COC1=CC(=O)c2c(O)c3c(c(O)c2C1=O)OC1(Oc2c(cc4cc(C)oc(=O)c4c2O)CC1O)C3O (stereo not drawn) | 10.3 µM | > 100 µM | > 100 | > 100 | > 100 | > 100 µM | > 100 | > 100 µM | > 100 µM | > 100 µM | – | – | – | – | – | – | – | – | – | –
2 | CC(C)COC(=O)N1N=NC2C3CC(=O)C(O3)C21 (stereo not drawn) | > 100 µM | > 100 µM | > 100 | – | > 100 | > 100 µM | – | > 100 µM | > 100 µM | > 100 µM | – | – | – | – | – | – | – | – | – | –
3 | CO[C@H](C(=O)O[C@H]1C(=O)N2CCC3CCC1C32C)c1ccccc1 (stereo partly drawn) | > 100 µM | > 100 µM | > 100 | – | > 100 | – | – | > 100 µM | > 100 µM | > 100 µM | – | – | – | – | – | – | – | – | – | –
4 | Nc1nc2ccccc2c2[nH]c3ccccc3c12 | 3.19 µM | 3.26 µM | – | – | 2.43 | 4.18 µM | 10.5 | 2.95 µM | 2.16 µM | 4.37 µM | 1.61 | 1.04 | 0.671 | 1.57 | 1.94 | 1.6 | 0.985 µM | 1.42 µM | – | –
5 | C[C@]12CC[C@H](OC(=O)Cc3ccc(N(CCCl)CCCl)cc3)CC1CC[C@@H]1C2CC[C@]2(C)NC(=O)CCC12 (stereo partly drawn) | 35.7 µM | 25.5 µM | 18 | – | 30.6 | 44.4 µM | – | 28.8 µM | – | 14.8 µM | – | – | – | – | – | – | – | – | – | –
6 | CC(=O)O[C@H]1CC[C@@]2(C)C(=CC[C@@H]3C2CC[C@]2(C)C(=O)NC(=O)CC32)C1 (stereo partly drawn) | > 100 µM | > 100 µM | > 100 | – | > 100 | > 100 µM | – | > 100 µM | > 100 µM | – | – | – | – | – | – | – | – | – | – | –
7 | C[C@]12CC/C(=N\O)C[C@@H]1CC[C@@H]1[C@@H]2CC[C@]2(C)/C(=N/O)CC[C@@H]12 | – | 47.4 µM | – | > 100 | > 100 | > 100 µM | > 100 | 55.2 µM | > 100 µM | 59.1 µM | – | 20.9 | 43.3 | 32.1 | 80.7 | 23.7 | 45.2 µM | 17.4 µM | 44.2 | –
8 | CCN1C(=O)/C(=C\c2coc3ccccc3c2=O)SC1=S | > 100 µM | > 100 µM | > 100 | – | > 100 | > 100 µM | – | > 100 µM | > 100 µM | > 100 µM | – | – | – | – | – | – | – | – | – | –
9 | CC[C@@]1(O)C(=O)OCc2c1cc1n(c2=O)Cc2cc3c([N+](=O)[O-])c(O)ccc3nc2-1 | 12.7 µM | 20.9 µM | 0.469 | – | > 100 | > 85.6 µM | – | 2.47 µM | 12.7 µM | 8.26 µM | 1.06 | 1.68 | 2.71 | 19.5 | – | 0.188 | 0.249 µM | 1.6 µM | – | < 0.026
10 | CC1OC(OC23C(=O)CC(C)(O)CC2(O)C=CC2=C3C(=O)c3ccc(C4CC(OC5CCC(OC6CC(O)C(O)C(C)O6)C(C)O5)C(O)C(C)O4)c(O)c3C2=O)CCC1O (stereo not drawn) | 8.48 µM and 3.49 µM | 31.2 µM and 27.5 µM | > 100 | – | – | 36.5 µM and 31.6 µM | – | 32.3 µM and 26.7 µM | 30.1 µM and 17.6 µM | 29.8 µM and 9.07 µM | – | – | – | – | – | – | 16.5 µM and 5.32 µM | 15.9 µM and 2.86 µM | – | –
11 | CC(C)(C)n1nc(C2CC2)cc1NC(=O)Nc1ccc(Cl)cc1 | > 100 µM | > 100 µM | – | > 100 | > 100 | > 100 µM | > 100 | > 100 µM | > 100 µM | > 100 µM | – | – | – | – | – | – | – | – | – | –
12 | O=C1/C(=N/N=C(c2ccccc2)c2ccccc2)c2ccccc2-c2ccccc21 | > 100 µM | > 100 µM | – | > 100 | > 100 | > 100 µM | > 100 | > 100 µM | > 100 µM | > 100 µM | – | – | – | – | – | – | – | – | – | –
13 | Clc1cc2nc[nH]c2cc1Cl | > 100 µM | > 100 µM | > 100 | – | > 100 | > 100 µM | – | > 100 µM | > 100 µM | > 100 µM | – | – | – | – | – | – | – | – | – | –
14 | Cc1c(C)n(CC(O)CNC2CCCCC2C)c2ccccc12 (stereo not drawn) | 30.1 µM | 28.9 µM | – | 29.8 | 26.5 | – | 31.6 | – | 31.2 µM | 29.9 µM | 14.2 | 15.3 | 12.6 | – | 17.8 | – | 16.2 µM | 16.4 µM | 15.5 | –
15 | CCOC(=O)C1Nc2ccc([N+](=O)[O-])cc2[C@H]2OCC[C@@H]12 (stereo partly drawn) | > 100 µM | > 100 µM | > 100 | – | > 100 | > 100 µM | – | > 100 µM | > 100 µM | > 100 µM | – | – | – | – | – | – | – | – | – | –
16 | Nc1ncnc2c1ncn2C1OC(CO)CC1O (stereo not drawn) | – | > 100 µM | > 100 | 55.2 | 83.3 | > 100 µM | > 100 | > 100 µM | 49.6 µM | > 100 µM | – | – | – | – | – | – | – | – | – | –
17 | C=CC1CC12C(=O)C1OC2(C)C2C(=O)c3c(O)cccc3C(=O)C12 (stereo not drawn) | 54.5 µM | 66.3 µM | > 100 | 84.1 | 44.6 | > 100 µM | – | > 100 µM | > 100 µM | – | 17.1 | 18 | 19.1 | 39.7 | – | 54.9 | 37.8 µM | – | 27.9 | 26
18 | COc1ccc(-c2cnc(SCC(=O)c3c(C)n(C)n(-c4ccccc4)c3=O)n2-c2ccc(OC)cc2)cc1 | – | > 50 µM | – | > 50 | > 50 | > 50 µM | > 50 | > 50 µM | > 50 µM | > 50 µM | – | > 50 | > 50 | > 50 | 9.13 | 35.2 | > 50 µM | > 50 µM | > 50 | –
19 | Cc1cc(N(CCC#N)CCC#N)ccc1/C=C(\NC(=O)/C=C/c1ccccc1)NC(=O)Nc1ccccc1C | > 100 µM | > 100 µM | > 100 | – | > 100 | – | – | > 100 µM | > 100 µM | > 100 µM | – | – | – | – | – | – | – | – | – | –
20 | O=C(/C=C/c1ccc[nH]1)c1ccccc1 | > 100 µM | > 100 µM | > 100 | – | > 100 | > 100 µM | – | > 100 µM | > 100 µM | > 100 µM | – | – | – | – | – | – | – | – | – | –
